Laboratory results as given in US20100099676A1 (SHIONOGI & CO., LTD., priority 2006, published 2010).

What was measured:
Experiment in all cases: Enzyme inhibiting activity of MMPs, fluorogenic peptide substrate
Assay type in all cases: biochemical
[1] = biological target: T1, MMP-2 (Homo sapiens, UniProt P08253); conditions: substrate MOCAc-Pro-Leu-Gly-Leu-A2Pr(DNP)-Ala-Arg-NH2, fluorescent intensity
T1 construct: purchased Calbiochem (EMD/MERCK Biosciences)
T1 sequence (P08253 110-660): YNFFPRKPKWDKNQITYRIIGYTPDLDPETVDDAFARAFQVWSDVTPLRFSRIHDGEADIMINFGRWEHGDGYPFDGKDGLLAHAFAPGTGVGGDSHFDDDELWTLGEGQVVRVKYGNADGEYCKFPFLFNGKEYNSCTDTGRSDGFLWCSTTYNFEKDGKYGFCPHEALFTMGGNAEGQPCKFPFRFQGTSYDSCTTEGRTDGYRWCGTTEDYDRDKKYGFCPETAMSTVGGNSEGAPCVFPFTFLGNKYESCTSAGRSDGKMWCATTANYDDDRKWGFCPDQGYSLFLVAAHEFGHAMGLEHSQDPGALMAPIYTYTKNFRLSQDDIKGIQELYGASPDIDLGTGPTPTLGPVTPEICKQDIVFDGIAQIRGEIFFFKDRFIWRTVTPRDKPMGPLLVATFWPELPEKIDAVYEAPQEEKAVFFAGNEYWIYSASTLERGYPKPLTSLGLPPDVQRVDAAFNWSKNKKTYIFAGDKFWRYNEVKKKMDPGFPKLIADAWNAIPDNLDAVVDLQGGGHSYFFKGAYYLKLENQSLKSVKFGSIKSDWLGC
Description: (§1) Various human MMPs (MMP-2, MMP-9 and MMP-13) were purchased from Calbiochem (EMD/MERCK Biosciences).
(§2) The enzyme activity of MMPs was measured according to the method described in C. Graham Knight, Frances Willenbrock and Gillian Murphy: A novel coumarin-labelled peptide for sensitive continuous assays of the matrix metalloproteinases: FEBS LETT., 296, (1992), 263-266. As a substrate, MOCAc-Pro-Leu-Gly-Leu-A2Pr(DNP)- Ala-Arg-NH2 (Peptide Institute, Inc. Osaka, Japan) was used, and the following four assays are performed per compound (inhibitor) for measuring the inhibiting activity.
(§3) (A) Substrate (synthetic substrate), enzyme (MMPs), inhibitor
(§4) (B) Substrate (synthetic substrate), inhibitor
(§5) (C) Substrate (synthetic substrate), enzyme (MMPs)
(§6) (D) Substrate (synthetic substrate)
(§7) In each assay, the fluorescent intensity was measured, and inhibition (%) was calculated by the following equation.
(§8) Inhibition (%)=[I−(A−B)/(C−D)]×100
(§9) IC50 indicates a concentration at which inhibition (%) is 50%.

[2] = biological target: T2, MMP-9 (Homo sapiens, UniProt P14780); conditions: substrate MOCAc-Pro-Leu-Gly-Leu-A2Pr(DNP)-Ala-Arg-NH2, fluorescent intensity
T2 construct: purchased Calbiochem (EMD/MERCK Biosciences)
Description: as §1, §2, §3, §4, §5, §6, §7, §8, §9

[3] = biological target: T3, MMP-13 (Homo sapiens, UniProt P45452); conditions: APMA-activated proenzyme; substrate MOCAc-Pro-Leu-Gly-Leu-A2Pr(DNP)-Ala-Arg-NH2, fluorescent intensity; read-out: IC50 MMP-13
T3 construct: purchased Calbiochem (EMD/MERCK Biosciences)
Procedure, shortened: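 Pro-MMP-13 was activated with 1 mM APMA at 37° C for 2 h in 50 mM Tris-HCl pH 7.6, 0.3 M NaCl, 10 mM CaCl2, 0.005% Brij35. Activity was read by fluorescence using MOCAc-Pro-Leu-Gly-Leu-A2Pr(DNP)-Ala-Arg-NH2 substrate, with enzyme and inhibitor blank corrections. IC50 is the concentration giving 50% inhibition.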

T2 sequence (P14780 94-707): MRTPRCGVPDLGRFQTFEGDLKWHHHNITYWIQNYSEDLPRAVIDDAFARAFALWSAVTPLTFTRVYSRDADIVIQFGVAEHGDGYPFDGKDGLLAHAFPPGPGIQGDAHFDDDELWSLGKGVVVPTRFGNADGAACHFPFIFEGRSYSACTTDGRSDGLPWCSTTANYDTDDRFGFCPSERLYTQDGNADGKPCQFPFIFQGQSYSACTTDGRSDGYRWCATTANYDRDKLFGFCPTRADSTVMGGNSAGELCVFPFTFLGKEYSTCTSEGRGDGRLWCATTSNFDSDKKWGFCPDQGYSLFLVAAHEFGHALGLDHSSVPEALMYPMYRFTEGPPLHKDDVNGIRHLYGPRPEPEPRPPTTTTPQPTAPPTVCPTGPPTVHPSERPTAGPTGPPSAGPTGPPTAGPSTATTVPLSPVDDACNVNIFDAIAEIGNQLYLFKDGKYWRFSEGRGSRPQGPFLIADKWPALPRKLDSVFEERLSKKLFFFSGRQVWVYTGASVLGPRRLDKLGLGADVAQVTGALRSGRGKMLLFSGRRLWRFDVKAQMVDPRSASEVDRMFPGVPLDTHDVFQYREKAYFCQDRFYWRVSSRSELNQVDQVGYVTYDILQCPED

Row | Compound | IC50 [1] [nM] | IC50 [2] [nM] | IC50 [3] [nM]
1 | COC(=O)c1ccc(COc2cccc(-c3csc(C#Cc4ccc(N5CCN(S(=O)(=O)N[C@H](C)C(=O)O)CC5)cc4)n3)c2)cc1 [Compound V-22, 4-[3-(2-{4-[4-((R)-1-carboxyethylsulfamoyl)-piperazin-1-yl]-phenylethynyl}-thiazol-4-yl)-phenoxymethyl]-benzoic acid methyl ester] | > 10000 | > 10000 | 8
2 | COCCOc1ccc(C#Cc2ccc(N3CCN(S(=O)(=O)N[C@@H](C(=O)O)C(C)C)CC3)cc2)cc1-c1ncc(CC(=O)NCc2ccccc2)o1 [Compound V-24, (R)-2-(4-{4-[3-[5-(benzylearbamoylmethyl)-oxazol-2-yl]-4-(2-methoxyethoxy)-phenylethynyl]-phenyl}-piperazine-1-sulfonylamino)-3-methylbutanoic acid] | > 10000 | > 10000 | 23
3 | CC(C)[C@@H](NS(=O)(=O)N1CCN(c2ccc(C#Cc3ccnc(C(=O)NCc4cccc(C#N)c4)c3)cc2)CC1)C(=O)O [Compound V-32, (R)-2-(4-{4-[2-(3-cyanobenzylcarbamoyl)-pyridin-4-ylethynyl]-phenyl}-piperazine-1-sulfonylamino)-3-methylbutanoic acid] | 1000 to 10000 | > 10000 | 16
4 | CCC[C@H](NS(=O)(=O)N1CCN(c2ccc(C#Cc3ccnc(C(=O)NCc4ccc(OC)cc4)c3)cc2)CC1)C(=O)O [Compound V-33, (5)-2-(4-{4-[2-(4-methoxybenzylcarbamoyl)-pyridin-4-ylethynyl]-phenyl}-piperazine-1-sulfonylamino)-pentanoic acid] | 1000 to 10000 | > 10000 | 3
5 | COc1ccc(CNC(=O)c2cc(C#Cc3ccc(N4CCN(S(=O)(=O)N[C@H](C(=O)O)C(C)C)CC4)cc3)ccn2)cc1 [Compound V-34, (5)-2-(4-{4-[2-(4-methoxybenzylcarbamoyl)-pyridin-4-ylethynyl]-phenyl}-piperazine-1-sulfonylamino)-3-methylbutanoic acid] | 1000 to 10000 | > 10000 | 5
6 | COc1ccc(Cn2ccc3ccc(C#Cc4ccc(N5CCN(S(=O)(=O)N[C@H](C)C(=O)O)CC5)cc4)cc3c2=O)cc1 [Compound V-36, (R)-2-(4-{4-[2-(4-methoxybenzyl)-1-oxo-1,2-dihydroisoquinolin-7-ylethynyl]-phenyl}-piperazine-1-sulfonylamino)-proponic acid] | 1000 to 10000 | 1000 to 10000 | 5
7 | COc1ccc(Cn2ccc3ccc(C#Cc4ccc(N5CCN(S(=O)(=O)N[C@H](C(=O)O)C(C)C)CC5)cc4)cc3c2=O)cc1 [Compound V-37, (S)-2-(4-{4-[2-(4-methoxybenzyl)-1-oxo-1,2-dihydroisoquinolin-7-ylethynyl]-phenyl}-piperazine-1-sulfonylamino)-3-methylbutanoic acid] | > 10000 | > 10000 | 20
8 | CC(C)[C@@H](NS(=O)(=O)N1CCN(c2ccc(C#Cc3nc(-c4cccc(C(=O)NCC#N)c4)cs3)cc2)CC1)C(=O)O [Compound V-40, (R)-2-[4-(4-{4-[3-(cyanomethylcarbamoyl)-phenyl]-thiazol-2-ylethynyl}-phenyl)-piperazine-1-sulfonylamino]-3-methylbutanoic acid] | 1000 to 10000 | 1000 to 10000 | 8
9 | CC(C)CO/N=C/c1c[nH]c2ccc(C#Cc3ccc(N4CCN(S(=O)(=O)N[C@H](C)C(=O)O)CC4)cc3)cc12 [Compound V-43, (R)-2-(4-{4-[3-((E)-isobutoxyiminomethyl)-1H-indol-5-ylethynyl]-phenyl}-piperazine-1-sulfonylamino)-proponic acid] | > 10000 | > 10000 | 19
10 | C[C@@H](NS(=O)(=O)N1CCN(c2ccc(C#Cc3ccc4c(c3)c(/C=C/Cl)cn4C)cc2)CC1)C(=O)O [Compound V-44, (R)-2-(4-{4-[3-((E)-2-chrolovinyl)-1-methyl1H-indol-5-ylethynyl]-phenyl}-piperazine-1-sulfonylamino)-proponic acid] | 1000 to 10000 | > 10000 | 16
11 | C[C@@H](NS(=O)(=O)N1CCN(c2ccc(C#Cc3ccc4c(c3)C(=O)N(Cc3ccccc3)CCN4)cc2)CC1)C(=O)O [Compound V-51, (R)-2-{4-[4-(4-benzyl-5-oxo-2,3,4,5-tetrahydro-1H-benzo[e][1,4]diazepin-7-ylethynyl)-phenyl]-piperazine-1-sulfonylamino}-proponic acid] | 1000 to 10000 | > 10000 | 8
12 | C[C@@H](NS(=O)(=O)N1CCN(c2ccc(C#Cc3ccc4c(c3)C(=O)N(Cc3ccccc3)CCN4C)cc2)CC1)C(=O)O [Compound V-52, (R)-2-{4-[4-(4-benzyl1-methyl-5-oxo-2,3,4,5-tetrahydro1H-benzo[e][1,4]diazepin-7-ylethynyl)-phenyl]-piperazine-1-sulfonylamino}-proponic acid] | 1000 to 10000 | 1000 to 10000 | 12

Other lines, results leading:

Row | IC50 [1] [nM] | IC50 [2] [nM] | IC50 [3] [nM] | Compound
13 | 1000 to 10000 | > 10000 | 1 | C[C@@H](NS(=O)(=O)N1CCN(c2ccc(C#Cc3nc(-c4cccc(OCc5ccc(S(C)(=O)=O)cc5)c4)cs3)cc2)CC1)C(=O)O [Compound V-20, (R)-2-[4-(4-{4-[3-(4-methanesulfonylbenzyloxy)-phenyl]-thiazol-2-ylethynyl}-phenyl)-piperazine-1-sulfonylamino]-proponic acid]
14 | 1000 to 10000 | > 10000 | 4 | CCc1cnc(-c2cc(C#Cc3ccc(N4CCN(S(=O)(=O)N[C@H](C)C(=O)O)CC4)cc3)ccc2OCCOC)o1 [Compound V-23, (R)-2-(4-{4-[3-(5-ethyloxazol-2-yl)-4-(2-methoxyethoxy)-phenylethynyl]-phenyl}-piperazine-1-sulfonylamino)-proponic acid]
15 | 1000 to 10000 | > 10000 | 9 | CCOc1ccc(C#Cc2ccc(N3CCN(S(=O)(=O)N[C@H](C)C(=O)O)CC3)cc2)cc1-c1ncc(CC)o1 [Compound V-25, (R)-2-(4-{4-[4-ethoxy-3-(5-ethyloxazol-2-yl)-phenylethynyl]-phenyl}-piperazine-1-sulfonylamino)-proponic acid]
16 | 1000 to 10000 | > 10000 | 24 | CCOc1ccc(C#Cc2ccc(N3CCN(S(=O)(=O)N[C@@H](C(=O)O)C(C)C)CC3)cc2)cc1-c1ncc(CC)o1 [Compound V-26, (R)-2-(4-{4-[4-ethoxy-3-(5-ethyloxazol-2-yl)-phenylethynyl]-phenyl}-piperazine-1-sulfonylamino)-3-methylbutanoic acid]
17 | 1000 to 10000 | > 10000 | 16 | CNC(=O)Cc1cnc(-c2cc(C#Cc3ccc(N4CCN(S(=O)(=O)N[C@@H](C(=O)O)C(C)C)CC4)cc3)ccc2OCCOC)o1 [Compound V-28, (R)-2-(4-{4-[4-(2-methoxyethoxy)-3-(5-methylcarbamoylmethyloxazol-2-yl)-phenylethynyl]-phenyl}-piperazine-1-sulfonylamino)-3-methylbutanoic acid]
18 | 1000 to 10000 | > 10000 | 1 | CC(C)[C@@H](NS(=O)(=O)N1CCN(c2ccc(C#Cc3ccnc(C(=O)NCc4ccc(C(=O)NCC#N)cc4)c3)cc2)CC1)C(=O)O [Compound V-30, (R)-2-[4-(4-{2-[4-(cyanomethylcarbamoyl)-benzylcarbamoyl]-pyridin-4-ylethynyl}-phenyl)-piperazine-1-sulfonylamino]-3-methylbutanoic acid]
19 | 1000 to 10000 | > 10000 | 3 | CC(C)[C@@H](NS(=O)(=O)N1CCN(c2ccc(C#Cc3ccnc(C(=O)NCc4ccc(C#N)cc4)c3)cc2)CC1)C(=O)O [Compound V-31, (R)-2-(4-{4-[2-(4-cyanobenzylcarbamoyl)-pyridin-4-ylethynyl]-phenyl}-piperazine-1-sulfonylamino)-3-methylbutanoic acid]
